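Results reflect a 48-hour exposure of cells in 96-well plates to compound at five concentrations. At the GI50, growth is halved.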 The source made the active and inactive calls. Rule as the data show it: active = GI50 up to about 1.1 µM and inactive = higher.
Columns and labels:
Test in all cases: growth of human tumour cells (NCI), 48 h
SR = test system: SR
OVCAR-5 = test system: OVCAR-5
TK-10 = test system: TK-10
OVCAR-4 = test system: OVCAR-4
A549 = test system: A549
SNB-19 = test system: SNB-19
SF-539 = test system: SF-539
HOP-62 = test system: HOP-62
UACC-257 = test system: UACC-257
OVCAR-3 = test system: OVCAR-3
HCC 2998 = test system: HCC 2998
SF-268 = test system: SF-268
RXF 393 = test system: RXF 393
LOX IMVI = test system: LOX IMVI
SK-MEL-28 = test system: SK-MEL-28
MOLT-4 = test system: MOLT-4
K562 = test system: K562

Measured: GI50

CCN1CCC(O)(c2ccccc2)C(C(=O)c2ccccc2)C1 (stereo unspecified)
inactive: SR 20.8 µM | OVCAR-5 18.2 µM | TK-10 23.2 µM | OVCAR-4 18.2 µM | A549 > 67.1 µM | SNB-19 > 100 µM | SF-539 62.5 µM | HOP-62 > 100 µM | UACC-257 19.6 µM | OVCAR-3 16.3 µM | HCC 2998 > 100 µM | SF-268 > 31.6 µM | RXF 393 15.5 µM | LOX IMVI 17.4 µM | SK-MEL-28 17.9 µM | MOLT-4 21.7 µM | K562 23.7 µM

S=c1sc2sc(=S)sc2s1
inactive: SR 29.1 µM | OVCAR-5 20.9 µM | TK-10 > 100 µM | OVCAR-4 > 100 µM | A549 31.6 µM | SNB-19 > 100 µM | SF-539 23.9 µM | HOP-62 > 100 µM | UACC-257 > 100 µM | HCC 2998 > 100 µM | SF-268 43.1 µM | RXF 393 35.6 µM | LOX IMVI 33.5 µM | MOLT-4 28.8 µM | K562 22.3 µM

NCC1(N2CCOCC2)C2CCCC21CNc1ccccc1 (stereo unspecified)
inactive: SR > 100 µM | OVCAR-5 > 100 µM | TK-10 > 100 µM | OVCAR-4 > 100 µM | A549 > 100 µM | SNB-19 > 100 µM | SF-539 > 100 µM | HOP-62 > 100 µM | UACC-257 > 100 µM | OVCAR-3 > 100 µM | HCC 2998 61 µM | SF-268 > 100 µM | RXF 393 56.4 µM | LOX IMVI > 100 µM | SK-MEL-28 > 100 µM | MOLT-4 92.3 µM | K562 90.6 µM

Cc1cc2c(=O)c(C)n[nH]c2c(C#N)c1C
inactive: SR > 100 µM | OVCAR-5 > 100 µM | TK-10 > 100 µM | A549 > 100 µM | SNB-19 > 100 µM | SF-539 > 100 µM | HOP-62 > 100 µM | UACC-257 > 100 µM | OVCAR-3 > 100 µM | HCC 2998 > 100 µM | SF-268 > 100 µM | RXF 393 > 100 µM | LOX IMVI > 100 µM | SK-MEL-28 > 100 µM | MOLT-4 > 100 µM

CSC1=Nc2ccccc2N=C(c2ccc(Cl)cc2)C1
inactive: SR 32.1 µM | OVCAR-5 27.8 µM | OVCAR-4 > 100 µM | A549 43.8 µM | SNB-19 > 100 µM | SF-539 40 µM | HOP-62 > 100 µM | UACC-257 27.7 µM | OVCAR-3 33.3 µM | HCC 2998 > 10 µM | SF-268 42.3 µM | RXF 393 20.4 µM | LOX IMVI 27.1 µM | SK-MEL-28 42 µM | MOLT-4 21.7 µM | K562 34.8 µM

C=C(C#N)C1OCC2OC(C)(C)OC21 (stereo unspecified)
inactive: OVCAR-5 19.8 µM | TK-10 34 µM | OVCAR-4 19.4 µM | A549 36 µM | SNB-19 > 100 µM | SF-539 16.1 µM | HOP-62 > 100 µM | UACC-257 15.5 µM | OVCAR-3 21.7 µM | HCC 2998 26.7 µM | SF-268 23.8 µM | RXF 393 16.7 µM | LOX IMVI 15 µM | SK-MEL-28 21.1 µM | MOLT-4 15.7 µM | K562 28.1 µM

CC1=NN(C(=O)CC(=O)Nc2ccccc2F)C(=O)C1/N=N/c1ccccc1[N+](=O)[O-] (stereo unspecified)
inactive: OVCAR-5 > 100 µM | TK-10 > 100 µM | OVCAR-4 70.6 µM | A549 64.7 µM | SNB-19 > 100 µM | SF-539 58.7 µM | HOP-62 > 100 µM | UACC-257 97.3 µM | OVCAR-3 96.4 µM | SF-268 > 100 µM | RXF 393 45.1 µM | SK-MEL-28 > 100 µM | MOLT-4 73.8 µM | K562 > 100 µM

C=C1CN2CCc3c([nH]c4ccccc34)C2CC1CC(=O)N(C)C (stereo unspecified)
inactive: SR > 309 µM | TK-10 > 309 µM | A549 > 309 µM | SNB-19 > 309 µM | SF-539 > 309 µM | HOP-62 > 309 µM | UACC-257 > 309 µM | OVCAR-3 > 309 µM | HCC 2998 > 309 µM | SF-268 > 309 µM | RXF 393 > 309 µM | LOX IMVI > 309 µM | SK-MEL-28 > 309 µM | MOLT-4 > 309 µM | K562 > 309 µM

CN(C)/C(=N/C(=O)Nc1ccccc1)SCc1ccccc1
inactive: OVCAR-5 > 100 µM | TK-10 > 100 µM | OVCAR-4 > 100 µM | A549 > 100 µM | SNB-19 > 100 µM | SF-539 > 100 µM | HOP-62 > 100 µM | UACC-257 > 100 µM | OVCAR-3 > 100 µM | HCC 2998 > 100 µM | SF-268 > 100 µM | RXF 393 58.9 µM | LOX IMVI > 100 µM | SK-MEL-28 > 100 µM | MOLT-4 73.3 µM | K562 76.9 µM

O=C(O)CC12C3C4C5C3C1C5C42 (stereo unspecified)
inactive: OVCAR-5 > 100 µM | TK-10 > 100 µM | OVCAR-4 > 100 µM | A549 > 100 µM | SNB-19 > 100 µM | SF-539 > 100 µM | HOP-62 > 100 µM | UACC-257 > 100 µM | OVCAR-3 > 100 µM | HCC 2998 > 100 µM | SF-268 > 100 µM | LOX IMVI > 100 µM | SK-MEL-28 > 100 µM | MOLT-4 > 100 µM | K562 > 100 µM

CC(=O)OC1COC(n2ccc3cc(Br)c([N+](=O)[O-])cc32)C(OC(C)=O)C1OC(C)=O (stereo unspecified)
inactive: SR 30.4 µM | TK-10 27 µM | OVCAR-4 > 10 µM | A549 27.8 µM | SNB-19 30 µM | SF-539 22.2 µM | HOP-62 30.5 µM | UACC-257 19.2 µM | OVCAR-3 23.8 µM | HCC 2998 24 µM | SF-268 33.4 µM | RXF 393 24.7 µM | LOX IMVI 20.1 µM | SK-MEL-28 27.4 µM | MOLT-4 > 10 µM | K562 29.6 µM

CC1(Cl)C(=O)NC(=O)N(C2CC(N=[N+]=[N-])C(CO)O2)C1N=[N+]=[N-] (stereo unspecified)
inactive: OVCAR-5 > 100 µM | TK-10 > 100 µM | OVCAR-4 > 100 µM | A549 > 100 µM | SNB-19 > 100 µM | SF-539 > 100 µM | HOP-62 > 100 µM | UACC-257 > 100 µM | OVCAR-3 > 100 µM | HCC 2998 > 100 µM | SF-268 > 100 µM | RXF 393 > 100 µM | LOX IMVI > 100 µM | SK-MEL-28 > 100 µM | MOLT-4 > 100 µM | K562 > 100 µM

CCOC(=O)C(CNc1ccc(O)cc1)NC(=O)c1ccccc1 (stereo unspecified)
inactive: SR > 61 µM | OVCAR-5 > 100 µM | TK-10 > 100 µM | OVCAR-4 > 66.2 µM | A549 > 100 µM | SNB-19 > 100 µM | SF-539 > 100 µM | HOP-62 > 100 µM | UACC-257 > 100 µM | OVCAR-3 > 100 µM | HCC 2998 > 100 µM | SF-268 > 100 µM | RXF 393 > 100 µM | LOX IMVI 99.8 µM | SK-MEL-28 > 100 µM | MOLT-4 50.8 µM | K562 37.8 µM

CC(=O)/C(=C\c1ccco1)C(=O)Nc1ccccc1
inactive: SR > 100 µM | TK-10 > 100 µM | OVCAR-4 > 100 µM | A549 > 100 µM | SNB-19 > 100 µM | SF-539 > 100 µM | HOP-62 > 100 µM | UACC-257 > 100 µM | OVCAR-3 > 100 µM | HCC 2998 > 100 µM | SF-268 > 100 µM | RXF 393 > 100 µM | LOX IMVI > 100 µM | SK-MEL-28 > 100 µM | MOLT-4 > 100 µM | K562 > 100 µM

O=C/C1=C/C2=Cc3ccccc3C=C(/C=C(/C=O)C1)C2
inactive: OVCAR-5 > 100 µM | TK-10 > 100 µM | OVCAR-4 46.7 µM | A549 > 100 µM | SNB-19 44.9 µM | SF-539 46.6 µM | HOP-62 74.8 µM | UACC-257 30.9 µM | OVCAR-3 37.5 µM | HCC 2998 45.9 µM | SF-268 38.1 µM | RXF 393 28.1 µM | LOX IMVI 33.9 µM | SK-MEL-28 39.6 µM | MOLT-4 15.8 µM | K562 18.1 µM

CO[C@@H]1C=C[C@@]23c4cc5c(cc4CN(C[C@@H]2O)[C@H]3C1)OCO5 [(+)-HAEMANTHAMINE]
inactive: SR 15 µM | OVCAR-5 41.9 µM | TK-10 30.8 µM | OVCAR-4 3.85 µM | A549 24 µM | SNB-19 33.3 µM | SF-539 28.6 µM | UACC-257 22.6 µM | OVCAR-3 46.6 µM | HCC 2998 15.6 µM | SF-268 29.7 µM | RXF 393 18.7 µM | LOX IMVI 6.38 µM | SK-MEL-28 18.9 µM | MOLT-4 6.47 µM | K562 7.67 µM

C[C@H]1C[C@@H]2[C@H]([C@@H](O)C[C@@]3(C)[C@H]2CC[C@]3(O)C(=O)CO)[C@@]2(C)C=CC(=O)C=C12 [METHYLPREDNISOLONE]
inactive: SR > 100 µM | OVCAR-5 > 100 µM | TK-10 > 100 µM | OVCAR-4 > 100 µM | A549 > 100 µM | HOP-62 > 100 µM | UACC-257 > 100 µM | OVCAR-3 > 100 µM | HCC 2998 > 100 µM | LOX IMVI > 100 µM | SK-MEL-28 > 100 µM | MOLT-4 > 100 µM | K562 > 100 µM

Reference: ChEMBL document CHEMBL1201862, “PubChem BioAssay data set” (2004)
